# Reference: patent publication US9511112B2, “Antibacterial composition for topical use” (GENERAL TOPICS S.r.l., priority 2012, dated 2016)
# Structures can show the parent of a compound that is named as a salt.
# System: bacterial population
# Assay: Microbiocidal activity by the same methods, triethyl citrate alone versus composition
# Assay type: cell-based
# Settings: 4.5 w/w % in water q.s. to 100 w/w %, without the Peptide
compound,measurement,value
"CCOC(=O)CC(O)(CC(=O)OCC)C(=O)OCC [triethyl citrate, triethyl-2-hydroxypropane-1,2,3-tricarboxylate]",survival of the bacterial population,25%
